The values that follow come from US20200055839A1 (priority 2017, published 2020).

This assay relates to NL-RLuc virus. Briefly: Inhibition of HIV replication (NL-RLuc virus, luciferase readout in MT-2 cells). The class given is cell-based. To be noted: Human immunodeficiency virus 1, MT2, 120 h, MT-2 cells infected with NL-RLuc virus, 5 days of incubation, 10% FBS, at least 2 experiments. Summed up: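 MT-2 cells infected with NL4-3-derived virus carrying Renilla luciferase in place of part of nef, grown 5 days with serial compound dilutions in RPMI 1640/10% FBS. Virus growth read as luciferase expression. EC50 from median effect equation, at least 2 experiments.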

The pEC50 is the EC50 on a negative log10 scale, so that one unit is a factor of ten. Read a high pEC50 as a low EC50.

pEC50: −log10 of the molar value.

The molecule `COc1c(F)cc(-c2c(CN3CCC3)nc(C)c([C@H](OC(C)(C)C)C(=O)O)c2N2CCC(C)(C)CC2)cc1F` [Example 196, (2S)-2-{6-[(Azetidin-1-yl)methyl]-5-(3,5-difluoro-4-methoxyphenyl)-4-(4,4-dimethylpiperidin-1-yl)-2-methylpyridin-3-yl}-2-(tert-butoxy)acetic acid] had a pEC50 of 7.72.
To `Cc1ncc(-c2ccc(OCCC(C)C)cn2)c(N2CCC(C)(C)CC2)c1[C@H](OC(C)(C)C)C(=O)O` [Example 315, (2S)-2-(tert-butoxy)-2-[4′-(4,4-dimethylpiperidin-1-yl)-6′-methyl-5-(3-methylbutoxy)-[2,3′-bipyridine]-5′-yl]acetic acid] belongs 8.70; to `COc1ccc(CCOc2ncc(-c3cnc(C)c([C@H](OC(C)(C)C)C(=O)O)c3N3CCC(C)(C)CC3)cc2F)cc1` [Example 374, (2S)-2-(tert-butoxy)-2-[4-(4,4-dimethylpiperidin-1-yl)-5′-fluoro-6′-[2-(4-methoxyphenyl)ethoxy]-6-methyl-[3,3′-bipyridine]-5-yl]acetic acid], 9.52.
To `Cc1cccnc1Nc1nc(C)c([C@H](OC(C)(C)C)C(=O)O)c(N2CCC(C)(C)CC2)c1-c1ccc(OCCc2ccc(F)cc2)cc1` [Example 65, (S)-2-(tert-Butoxy)-2-(4-(4,4-dimethylpiperidin-1-yl)-5-(4-(4-fluorophenethoxy)phenyl)-2-methyl-6-((3-methylpyridin-2-yl)amino)pyridin-3-yl)acetic acid] belongs 8.70; to `COc1cccc(-c2cnc(C)c([C@H](OC(C)(C)C)C(=O)O)c2N2CCC(C)(C)CC2)c1OC` [Example 158, (2S)-2-(tert-Butoxy)-2-[5-(2,3-dimethoxyphenyl)-4-(4,4-dimethylpiperidin-1-yl)-2-methylpyridin-3-yl]acetic acid], 7.80.
The result for `Cc1ncc(-c2ccc(OCCCC(C)(C)C)cn2)c(N2CCC(C)(C)CC2)c1[C@H](OC(C)(C)C)C(=O)O` [Example 351, (2S)-2-(tert-butoxy)-2-{5-[(4,4-dimethylpentyl)oxy]-4′-(4,4-dimethylpiperidin-1-yl)-6′-methyl-[2,3′-bipyridine]-5′-yl}acetic acid] reads 9.10; that for `Cc1nc(N)c(-c2cc(F)c(F)c(F)c2)c(N2CCC(C)(C)CC2)c1[C@H](OC(C)(C)C)C(=O)O` [Example 58, (S)-2-(6-Amino-4-(4,4-dimethylpiperidin-1-yl)-2-methyl-5-(3,4,5-trifluorophenyl)pyridin-3-yl)-2-(tert-butoxy)acetic acid], 7.74.
Molecule `Cc1nc(Nc2cccnc2F)c(-c2ccc(OCCc3ccc(F)cc3)cc2)c(N2CCC(C)(C)CC2)c1[C@H](OC(C)(C)C)C(=O)O` [Example 90, (S)-2-(tert-Butoxy)-2-(4-(4,4-dimethylpiperidin-1-yl)-5-(4-(4-fluorophenethoxy)phenyl)-6-((2-fluoropyridin-3-yl)amino)-2-methylpyridin-3-yl)acetic acid] gave a pEC50 of 8.30.
The result for `Cc1nc(-c2cnn(C3CC3)c2)c(-c2ccc(OCCc3ccc(F)cc3)cc2)c(N2CCC(C)(C)CC2)c1[C@H](OC(C)(C)C)C(=O)O` [Example 47, (S)-2-(tert-Butoxy)-2-(6-(1-cyclopropyl-H-pyrazol-4-yl)-4-(4,4-dimethylpiperidin-1-yl)-5-(4-(4-fluorophenethoxy)phenyl)-2-methylpyridin-3-yl)acetic acid] reads 8.40; that for `Cc1ncc(-c2ccc(OCc3ccc(Cl)cc3)cn2)c(N2CCC(C)(C)CC2)c1[C@H](OC(C)(C)C)C(=O)O` [Example 338, (2S)-2-(tert-butoxy)-2-{5-[(4-chlorophenyl)methoxy]-4′-(4,4-dimethylpiperidin-1-yl)-6′-methyl-[2,3′-bipyridine]-5′-yl}acetic acid], 9.00; that for `Cc1ncc(-c2ccc(OCCc3cccc(F)c3)nc2)c(N2CCC(C)(C)CC2)c1[C@H](OC(C)(C)C)C(=O)O` [Example 255, (S)-2-(tert-Butoxy)-2-(4-(4,4-dimethylpiperidin-1-yl)-6′-(3-fluorophenethoxy)-6-methyl-[3,3′-bipyridin]-5-yl)acetic acid], 9.10.
In turn, `CC1(C)CCN(c2c(-c3ccc(OCCc4ccc(F)cc4)cc3)cnc(CO)c2[C@H](OC(C)(C)C)C(=O)O)CC1` [Example 8, (S)-2-(tert-Butoxy)-2-(4-(4,4-dimethylpiperidin-1-yl)-5-(4-(4-fluorophenethoxy)phenyl)-2-(hydroxymethyl)pyridin-3-yl)acetic acid] had a pEC50 of 8.52. Compared with the last molecule, the pEC50 is 0.58 log units lower.
To `COc1ccc(CCOc2ncc(-c3cnc(C)c([C@H](OC(C)(C)C)C(=O)O)c3N3CCC(C)(C)CC3)cc2F)c(C)c1` [Example 399, (2S)-2-(tert-butoxy)-2-[4-(4,4-dimethylpiperidin-1-yl)-5′-fluoro-6′-[2-(4-methoxy-2-methylphenyl)ethoxy]-6-methyl-[3,3′-bipyridine]-5-yl]acetic acid] belongs 8.70; to `Cc1nc(Nc2ccc(F)cn2)c(-c2ccc(OCCc3ccc(F)cc3)cc2)c(N2CCC(C)(C)CC2)c1[C@H](OC(C)(C)C)C(=O)O` [Example 83, (S)-2-(tert-Butoxy)-2-(4-(4,4-dimethylpiperidin-1-yl)-5-(4-(4-fluorophenethoxy)phenyl)-6-((5-fluoropyridin-2-yl)amino)-2-methylpyridin-3-yl)acetic acid], 8.30; to `Cc1ncc(-c2ccc3ccccc3c2)c(N2CCC(C)(C)CC2)c1[C@H](OC(C)(C)C)C(=O)O` [Example 183, (2S)-2-(tert-Butoxy)-2-[4-(4,4-dimethylpiperidin-1-yl)-2-methyl-5-(naphthalen-2-yl)pyridin-3-yl]acetic acid], 8.22.
In turn, `Cc1cc(-c2cnc(C)c([C@H](OC(C)(C)C)C(=O)O)c2N2CCC(C)(C)CC2)ncc1OCCc1ccc(F)cc1` [Example 248, (S)-2-(tert-Butoxy)-2-(4′-(4,4-dimethylpiperidin-1-yl)-5-(4-fluorophenethoxy)-4, 6′-dimethyl-[2, 3′-bipyridin]-5′-yl)acetic acid] showed a pEC50 of 9.00.
The result for `Cc1ncc(-c2ccc(OCCc3cc(F)cc(F)c3)cn2)c(N2CCC(C)(C)CC2)c1[C@H](OC(C)(C)C)C(=O)O` [Example 323, (2S)-2-(tert-butoxy)-2-{5-[2-(3,5-difluorophenyl)ethoxy]-4′-(4,4-dimethylpiperidin-1-yl)-6′-methyl-[2,3′-bipyridine]-5′-yl}acetic acid] reads 9.00; that for `Cc1ncc(-c2ccc(OCCCCc3ccccc3)cn2)c(N2CCC(C)(C)CC2)c1[C@H](OC(C)(C)C)C(=O)O` [Example 341, (2S)-2-(tert-butoxy)-2-[4′-(4,4-dimethylpiperidin-1-yl)-6′-methyl-5-(4-phenylbutoxy)-[2,3′-bipyridine]-5′-yl]acetic acid], 8.52; that for `Cc1nc(-c2cncnc2)c(-c2ccc(OCCc3ccc(F)cc3)cc2)c(N2CCC(C)(C)CC2)c1[C@H](OC(C)(C)C)C(=O)O` [Example 39, (S)-2-(tert-Butoxy)-2-(4-(4,4-dimethylpiperidin-1-yl)-5-(4-(4-fluorophenethoxy)phenyl)-2-methyl-6-(pyrimidin-5-yl)pyridin-3-yl)acetic acid], 8.52.
